Drawing on publication PMC8802806, “Synthesis and Antitumor Activity of Erlotinib Derivatives Linked With 1,2,3-Triazole” (Frontiers in Pharmacology, 2022), this text covers IC50, inhibition and melting point for eight molecules.

The IC50 is the concentration that inhibits the measured activity by half. What is called inhibition is the change of the read-out against control, counted positive when it falls. As usually defined, the melting point is the temperature, or range, at which the solid turns liquid.

One data set relates to HeLa cells. In words: Cell antiproliferative activity assay (CCK8). The format is cell-based, human. The settings on record: for inhibition at 0.25 µM: 250 nM; for inhibition at 0.5 µM: 500 nM; for inhibition at 1 µM: 1000 nM; for inhibition at 2 µM: 2000 nM; for inhibition at 4 µM: 4000 nM; for inhibition at 8 µM: 8000 nM; for inhibition at 16 µM: 16000 nM. As to the method: Cell antiproliferative activity was evaluated by the Cell Counting Kit-8 (CCK8, DOJINDO, Japan) assay. The cells were seeded at a density of 2,000 cells per well into 96-well microplate in 100 μl of growth medium. Cells were incubated at 37°C and 5% CO2 overnight. The next day, 100 μl per well of diluted inhibitor in growth medium was added with the final concentration from 0.1 nM to 100 μM. The cells were treated with DMSO as control. A series of dilutions are made in 0.1% DMSO in assay medium so that the final concentration of DMSO is 0.1% in all of treatments. Cells were incubated at 37°C and 5% CO2 for 48 h. Then, 10 μl of CCK8 was added to each well. The plates were incubated at 37°C for 2 h; after that, the plates were recorded by measuring absorbance at 450 nm with the reference wavelength of 630 nm using an EnVision Multilabel Reader (PerkinElmer). The IC50 values were calculated using GraphPad Prism 6.0 software and determined by the concentration causing a half-maximal percent activity. All assays were conducted with three parallel samples and three repetitions.

[1] abbreviates: Homo sapiens, HeLa, 48 h, HeLa cells, CCK8, 48 h, mean ± SD, n = 3, read-out: IC50 (μM) HeLa.
Setting [2] is: Homo sapiens, HeLa, HELA 2000cells/well, supplement DataSheet2, Repeat1, read-out: IC50 Repeat1.
Setting [3] is: Homo sapiens, HeLa, HELA 2000cells/well, supplement DataSheet2, Repeat 2, read-out: IC50 Repeat 2.
Where [4] appears, read: Homo sapiens, HeLa, HELA 2000cells/well, supplement DataSheet2, mean of two repeats ± SD, read-out: IC50 mean±SD.
[5] abbreviates: Homo sapiens, HELA 2000cells/well, Repeat1, read-out: Inhibition (%) Repeat1.
[6] abbreviates: Homo sapiens, HELA 2000cells/well, Repeat2, read-out: Inhibition (%) Repeat2.

Read-outs that look alike come from different tables or passages of the source.

Regarding `COCCOc1cc2ncnc(Nc3cccc(-c4cn(-c5ccccc5Br)nn4)c3)c2cc1OCCOC` [Compound 4i, [6,7-Bis-(2-methoxy-ethoxy)-quinazolin-4-yl]-{3-[1-(2-bromo-phenyl)-1H-[1,2,3]triazol-4-yl]-phenyl}-amine], the melting point lay in the range of 93 to 97 °C. Also, the concentration for half-maximal inhibition (IC50) in the data set on HeLa cells (HeLa cells, CCK8, 48 h, mean ± SD, n = 3, read-out: IC50 (μM) HeLa) turned out to be 4.36 ± 0.15 µM. Also, the IC50 with HeLa cells (setting [1]) amounted to 4.16 µM. For the same molecule, the concentration for half-maximal inhibition (IC50) in the data set on HeLa cells (setting [2]) was 4.41 µM. For the same molecule, the IC50 in the data set with HeLa cells (setting [3]) stood at 4.3 µM. For the same molecule, in the data set on HeLa cells (setting [4]), the IC50 was found to be 4.36 ± 0.054 µM. Also, in the data set with HeLa cells (setting [5]), the inhibition at 0.25 µM amounted to 2.62%, the inhibition at 0.5 µM amounted to 6.42%, the inhibition at 1 µM was 9.04% and the inhibition at 2 µM is 15.2%. In the data set with HeLa cells (setting [5]), the inhibition at 4 µM was 41.6%, the inhibition at 8 µM was 83.4% and the inhibition at 16 µM was 88.1%. For the same molecule, in the data set on HeLa cells (setting [6]), the inhibition at 0.25 µM was 0%, the inhibition at 0.5 µM amounted to 5.74%, the inhibition at 1 µM turned out to be 6.59% and the inhibition at 2 µM worked out at 17.7%. Further, in the data set on HeLa cells (setting [6]), the inhibition at 4 µM worked out at 42.6%, the inhibition at 8 µM is 83.9% and the inhibition at 16 µM is 88.9%.
On to `C#Cc1cccc(Nc2ncnc3cc(OCCOC)c(OCCOC)cc23)c1` [Erlotinib, erlotinib], for which the half-inhibitory concentration (IC50) in the data set with HeLa cells (Homo sapiens, HeLa cells, CCK8, 48 h, mean ± SD, n = 3, read-out: IC50 (μM) HeLa) turned out to be 39.5 ± 3.34 µM.
In turn, `COCCOc1cc2ncnc(Nc3cccc(-c4cn(Cc5ccccc5)nn4)c3)c2cc1OCCOC` [Compound 4a, [3-(1-Benzyl-1H-[1,2,3]triazol-4-yl)-phenyl]-[6,7-bis-(2-methoxy-ethoxy)-quinazolin-4-yl]-amine] had a melting point of 89 to 92 °C. In the data set with HeLa cells (setting [1]), the half-inhibitory concentration (IC50) was greater than 50 µM. Also, in the data set with HeLa cells (setting [5]), the inhibition at 0.25 µM was 0%, the inhibition at 0.5 µM stood at 8.2%, the inhibition at 1 µM turned out to be 8.54% and the inhibition at 2 µM was determined as 8.54%. Besides, in the data set with HeLa cells (setting [5]), the inhibition at 4 µM turned out to be 12.1%, the inhibition at 8 µM was 12.5% and the inhibition at 16 µM came to 16.3%. In the data set with HeLa cells (setting [6]), the inhibition at 0.25 µM was 4.4%, the inhibition at 0.5 µM worked out at 5.61%, the inhibition at 1 µM was 6.73% and the inhibition at 2 µM was determined as 6.73%. In the data set with HeLa cells (setting [6]), the inhibition at 4 µM turned out to be 12.1%, the inhibition at 8 µM came out at 13.8% and the inhibition at 16 µM was found to be 15.5%.
The molecule `COCCOc1cc2ncnc(Nc3cccc(-c4cn(Cc5ccccc5Br)nn4)c3)c2cc1OCCOC` [Compound 4c, [6,7-Bis-(2-methoxy-ethoxy)-quinazolin-4-yl]-{3-[1-(2-bromo-benzyl)-1H-[1,2,3]triazol-4-yl]-phenyl}-amine] displayed a melting point of 94 to 97 °C. Moreover, the IC50 with HeLa cells (setting [1]) was found to be 21.3 ± 7.79 µM. Besides, the IC50 in the data set on HeLa cells (setting [2]) turned out to be 14.8 µM. In the data set on HeLa cells (setting [3]), the IC50 came out at 30.4 µM. Moreover, in the data set with HeLa cells (setting [5]), the inhibition at 0.25 µM stood at 2.33%, the inhibition at 0.5 µM amounted to 4.15%, the inhibition at 1 µM worked out at 4.75% and the inhibition at 2 µM came to 15.8%. Further, in the data set with HeLa cells (setting [5]), the inhibition at 4 µM is 35.6%, the inhibition at 8 µM was determined as 42.4% and the inhibition at 16 µM came out at 45%. In the data set on HeLa cells (setting [6]), the inhibition at 0.25 µM came to 0%, the inhibition at 0.5 µM stood at 1.82%, the inhibition at 1 µM was 2.33% and the inhibition at 2 µM is 9.94%. Also, in the data set on HeLa cells (setting [6]), the inhibition at 4 µM was found to be 21.3%, the inhibition at 8 µM came out at 29.7% and the inhibition at 16 µM turned out to be 34.1%.
In the case of `COCCOc1cc2ncnc(Nc3cccc(-c4cn(Cc5ccccc5I)nn4)c3)c2cc1OCCOC` [Compound 4b, [6,7-Bis-(2-methoxy-ethoxy)-quinazolin-4-yl]-{3-[1-(2-iodo-benzyl)-1H-[1,2,3]triazol-4-yl]-phenyl}-amine], the melting point is 93 to 96 °C. Besides, the IC50 in the data set with HeLa cells (setting [1]) is 11.5 ± 1.69 µM. The half-inhibitory concentration (IC50) with HeLa cells (setting [2]) was 9.72 µM. For the same molecule, the half-maximal inhibitory concentration (IC50) in the data set on HeLa cells (setting [3]) amounted to 13.1 µM. Also, the IC50 in the data set on HeLa cells (setting [4]) worked out at 11.5 ± 1.69 µM. In the data set on HeLa cells (setting [5]), the inhibition at 0.25 µM worked out at 8.56%, the inhibition at 0.5 µM was 12.5%, the inhibition at 1 µM came out at 13.3% and the inhibition at 2 µM stood at 17.6%. Besides, in the data set on HeLa cells (setting [5]), the inhibition at 4 µM came to 37.8%, the inhibition at 8 µM was determined as 52% and the inhibition at 16 µM amounted to 54.8%. For the same molecule, in the data set on HeLa cells (setting [6]), the inhibition at 0.25 µM was 0%, the inhibition at 0.5 µM came out at 0%, the inhibition at 1 µM came to 3.42% and the inhibition at 2 µM was 7.96%. In the data set on HeLa cells (setting [6]), the inhibition at 4 µM was found to be 28.2%, the inhibition at 8 µM is 40.8% and the inhibition at 16 µM came out at 51.1%.
`COCCOc1cc2ncnc(Nc3cccc(-c4cn(-c5ccccc5Cl)nn4)c3)c2cc1OCCOC` [Compound 4h, [6,7-Bis-(2-methoxy-ethoxy)-quinazolin-4-yl]-{3-[1-(2-chloro-phenyl)-1H-[1,2,3]triazol-4-yl]-phenyl}-amine] gave a melting point of 131 to 134 °C. The IC50 with HeLa cells (setting [1]) worked out at 8.85 ± 0.56 µM. Further, the 50% inhibitory concentration (IC50) in the data set with HeLa cells (setting [2]) turned out to be 8.32 µM. Besides, the half-inhibitory concentration (IC50) in the data set with HeLa cells (setting [3]) was 9.44 µM. The IC50 in the data set on HeLa cells (setting [4]) turned out to be 8.86 ± 0.559 µM. In the data set on HeLa cells (setting [5]), the inhibition at 0.25 µM stood at 0%, the inhibition at 0.5 µM is 7.08%, the inhibition at 1 µM stood at 7.26% and the inhibition at 2 µM was 13.4%. In addition, in the data set on HeLa cells (setting [5]), the inhibition at 4 µM came out at 31.3%, the inhibition at 8 µM was 54.3% and the inhibition at 16 µM was 63.2%. For the same molecule, in the data set with HeLa cells (setting [6]), the inhibition at 0.25 µM came to 1.75%, the inhibition at 0.5 µM worked out at 3.15%, the inhibition at 1 µM amounted to 6.12% and the inhibition at 2 µM was found to be 11.2%. Further, in the data set with HeLa cells (setting [6]), the inhibition at 4 µM worked out at 29.2%, the inhibition at 8 µM stood at 51.4% and the inhibition at 16 µM was determined as 59.4%.
The molecule `COCCOc1cc2ncnc(Nc3cccc(-c4cn(-c5ccc(F)cc5)nn4)c3)c2cc1OCCOC` [Compound 4g, [6,7-Bis-(2-methoxy-ethoxy)-quinazolin-4-yl]-{3-[1-(4-fluoro-phenyl)-1H-[1,2,3]triazol-4-yl]-phenyl}-amine] had a melting point of 88 to 91 °C. For the same molecule, the half-inhibitory concentration (IC50) with HeLa cells (setting [1]) was 9.05 ± 0.53 µM. In the data set on HeLa cells (setting [2]), the concentration for half-maximal inhibition (IC50) turned out to be 8.57 µM. The IC50 with HeLa cells (setting [3]) came to 9.64 µM. Besides, the IC50 in the data set with HeLa cells (setting [4]) is 9.06 ± 0.531 µM. For the same molecule, in the data set on HeLa cells (setting [5]), the inhibition at 0.25 µM is 0%, the inhibition at 0.5 µM is 0.279%, the inhibition at 1 µM was determined as 2.88% and the inhibition at 2 µM was found to be 20.6%. In addition, in the data set with HeLa cells (setting [5]), the inhibition at 4 µM was found to be 37.5%, the inhibition at 8 µM came out at 51.1% and the inhibition at 16 µM was found to be 59.4%. Also, in the data set on HeLa cells (setting [6]), the inhibition at 0.25 µM came out at 2.88%, the inhibition at 0.5 µM was 5.02%, the inhibition at 1 µM came out at 5.02% and the inhibition at 2 µM was 17.7%. Also, in the data set with HeLa cells (setting [6]), the inhibition at 4 µM worked out at 38.5%, the inhibition at 8 µM was 50.1% and the inhibition at 16 µM was 54.7%.
On to `COCCOc1cc2ncnc(Nc3cccc(-c4cn(-c5cccc(OC)c5)nn4)c3)c2cc1OCCOC` [Compound 4e, [6,7-Bis-(2-methoxy-ethoxy)-quinazolin-4-yl]-{3-[1-(3-methoxy-phenyl)-1H-[1,2,3]triazol-4-yl]-phenyl}-amine], for which, in the data set with HeLa cells (setting [1]), the half-inhibitory concentration (IC50) is greater than 50 µM. Moreover, in the data set with HeLa cells (setting [5]), the inhibition at 0.25 µM amounted to 0.801%, the inhibition at 0.5 µM came to 4.97%, the inhibition at 1 µM was 7.13% and the inhibition at 2 µM came out at 14.1%. Moreover, in the data set on HeLa cells (setting [5]), the inhibition at 4 µM came to 15%, the inhibition at 8 µM turned out to be 16.5% and the inhibition at 16 µM was determined as 18.2%. For the same molecule, in the data set on HeLa cells (setting [6]), the inhibition at 0.25 µM turned out to be 0%, the inhibition at 0.5 µM turned out to be 2.08%, the inhibition at 1 µM turned out to be 3.04% and the inhibition at 2 µM came to 5.45%. In the data set with HeLa cells (setting [6]), the inhibition at 4 µM was found to be 13.5%, the inhibition at 8 µM was 15.1% and the inhibition at 16 µM turned out to be 15.9%.
